Here are results for one substance from patent EP3530280B1, “VETERINARY COMPOSITION FOR MANUFACTURING A SEMINAL ADDITIVE USEFUL FOR ARTIFICIAL INSEMINATION IN ANIMALS” (Universidad De León, priority 2016, dated 2020).

This test has as its system swine. Kind of test: Field studies of semen additive in swine artificial insemination (fecundity, birth fertility, prolificacy). The conditions noted are these: Experimental Groups, amount per dose as given in the Composition column. The class given is in vivo. The procedure:
In order to examine the effect of the prepared pharmaceutical composition in Example 1 above, for use thereof in swine artificial insemination, field studies were carried out about the effects on fecundity, birth fertility and prolificacy (mean of the total piglets being born (either dead or alive) per delivery). Tables 1 and 2 show the results of the studies being carried out, observing how there are differences being statistically significant in all the experimental groups with respect to control groups.
The statistical characters of fecundity (%fecundity), prolificacy (N.T.), number of alive births (N.V.) and mortality (% of N.M. against N.T.), were tested on factorial ANOVA, LSD Fisher and SAS package (Statistical Analysis System). Table 1. Effects on fecundity and birth fertility

The mark [1] stands for this setting: additive applied to seminal doses for swine artificial insemination.

In the case of Oxytocin, the “prolificacy (mean of the total piglets being born (either dead or alive) per delivery)” value (Mean ± e.s. (n)) is recorded as 14.30 ± 0.29 (154). Further, under setting [1], the “Birth Fertility (%)” value stood at 88.89% and the “Fecundity (%)” value came to 90.26%.
